# From ChEMBL document CHEMBL3885861, “Open TG-GATES”
# Species on record: Rattus norvegicus
# Assay: Open TG-GATES - Regimen: Single
# Assay type: toxicity, organism-based, Sprague-Dawley
# Parameters: regimen Single, gender Male, age 6 weeks
# Conditions: in vivo, po, route gavage; for TC / TG / TP / gamma-GTP / ALT / AST / CRE / Ca / DBIL / GLC / K / LDH / Na / PL / RALB / TBIL / Cl / ALP: tissue Plasma; for Bas / Eos / Fbg / Hb / Ht / Lym / MCHC / MCV / Mono / PT / Plat / RBC / WBC / APTT: tissue Blood; for KIDNEY_L / KIDNEY_R / KIDNEY_TOTAL: tissue Kidney; for LIVER: tissue Liver
# [1] = 240 mg/kg, 3 h, dose level Middle
# [2] = 240 mg/kg, 6 h, dose level Middle
# [3] = 240 mg/kg, 9 h, dose level Middle
# [4] = 240 mg/kg, 24 h, dose level Middle
# [5] = 800 mg/kg, 3 h, dose level High
# [6] = 800 mg/kg, 6 h, dose level High
# [7] = 800 mg/kg, 9 h, dose level High
# [8] = 800 mg/kg, 24 h, dose level High
smiles,measurement,setting,value
COc1ccc([C@@H]2Sc3ccccc3N(CCN(C)C)C(=O)[C@@H]2OC(C)=O)cc1 [DILTIAZEM],TC,"80 mg/kg, 24 h, dose level Low",78.2 mg/dL
same,TG,"80 mg/kg, 24 h, dose level Low",67.8 mg/dL
same,TP,"80 mg/kg, 24 h, dose level Low",5.5 g/dL
same,gamma-GTP,"80 mg/kg, 24 h, dose level Low",1 IU/L
same,TERMINAL_BW,[1],186.7 g
same,Bas,[1],0%
same,Eos,[1],0.8%
same,Fbg,[1],284.8 mg/dL
same,Hb,[1],12.6 g/dL
same,Ht,[1],38.9%
same,Lym,[1],75%
same,MCHC,[1],32.3%
same,MCV,[1],65.9 fL
same,Mono,[1],3.2%
same,PT,[1],14.7 s
same,Plat,[1],119.4 x10_4/uL
same,RBC,[1],588.8 x10_4/ul
same,WBC,[1],87.8 x10_2/uL
same,KIDNEY_L,[1],0.9 g
same,KIDNEY_R,[1],0.9 g
same,KIDNEY_TOTAL,[1],1.7 g
same,LIVER,[1],8.4 g
same,ALT,[1],45.2 IU/L
same,AST,[1],84 IU/L
same,CRE,[1],0.2 mg/dL
same,Ca,[1],10.8 mg/dL
same,DBIL,[1],0.012 mg/dL
same,GLC,[1],186.4 mg/dL
same,K,[1],4.4 meq/L
same,LDH,[1],70.4 IU/L
same,Na,[1],142 meq/L
same,PL,[1],136.8 mg/dL
same,RALB,[1],2.5 g/dL
same,TBIL,[1],0.03 mg/dL
same,TC,[1],75 mg/dL
same,TG,[1],58 mg/dL
same,TP,[1],5.2 g/dL
same,gamma-GTP,[1],1 IU/L
same,TERMINAL_BW,[2],187.5 g
same,Bas,[2],0%
same,Eos,[2],0.8%
same,Fbg,[2],303.8 mg/dL
same,Ht,[2],40.7%
same,Lym,[2],80%
same,MCHC,[2],32%
same,MCV,[2],67.1 fL
same,Mono,[2],3%
same,PT,[2],14.7 s
same,Plat,[2],120.8 x10_4/uL
same,RBC,[2],608.2 x10_4/ul
same,WBC,[2],79.2 x10_2/uL
same,KIDNEY_L,[2],0.9 g
same,KIDNEY_R,[2],0.8 g
same,KIDNEY_TOTAL,[2],1.7 g
same,LIVER,[2],8.1 g
same,ALT,[2],44.8 IU/L
same,AST,[2],73.4 IU/L
same,CRE,[2],0.2 mg/dL
same,Ca,[2],10.9 mg/dL
same,Cl,[2],106.6 meq/L
same,DBIL,[2],0.014 mg/dL
same,GLC,[2],182.8 mg/dL
same,K,[2],4.2 meq/L
same,LDH,[2],54.4 IU/L
same,Na,[2],142.8 meq/L
same,PL,[2],153.6 mg/dL
same,RALB,[2],2.6 g/dL
same,TBIL,[2],0.034 mg/dL
same,TC,[2],86.2 mg/dL
same,TG,[2],47.2 mg/dL
same,TP,[2],5.3 g/dL
same,gamma-GTP,[2],1.2 IU/L
same,TERMINAL_BW,[3],182 g
same,APTT,[3],17.3 s
same,Bas,[3],0.2%
same,Eos,[3],0.8%
same,Fbg,[3],305.8 mg/dL
same,Hb,[3],12.9 g/dL
same,Ht,[3],40.1%
same,Lym,[3],78.6%
same,MCHC,[3],32.2%
same,MCV,[3],67 fL
same,Mono,[3],2.6%
same,PT,[3],14.8 s
same,Plat,[3],121.1 x10_4/uL
same,RBC,[3],599.4 x10_4/ul
same,WBC,[3],83.9 x10_2/uL
same,KIDNEY_L,[3],0.9 g
same,KIDNEY_R,[3],0.9 g
same,KIDNEY_TOTAL,[3],1.7 g
same,LIVER,[3],7.9 g
same,ALT,[3],41.8 IU/L
same,AST,[3],71.8 IU/L
same,CRE,[3],0.1 mg/dL
same,Ca,[3],10.7 mg/dL
same,Cl,[3],105.6 meq/L
same,DBIL,[3],0.012 mg/dL
same,GLC,[3],171.6 mg/dL
same,K,[3],4.1 meq/L
same,LDH,[3],50.8 IU/L
same,Na,[3],143 meq/L
same,PL,[3],150.4 mg/dL
same,RALB,[3],2.5 g/dL
same,TBIL,[3],0.028 mg/dL
same,TC,[3],82 mg/dL
same,TG,[3],45.8 mg/dL
same,TP,[3],5.2 g/dL
same,gamma-GTP,[3],1 IU/L
same,TERMINAL_BW,[4],196.9 g
same,Bas,[4],0%
same,Eos,[4],1%
same,Fbg,[4],271.8 mg/dL
same,Hb,[4],13 g/dL
same,Ht,[4],39.6%
same,Lym,[4],75.6%
same,MCHC,[4],32.9%
same,MCV,[4],64.6 fL
same,Mono,[4],2.8%
same,PT,[4],14.8 s
same,Plat,[4],120 x10_4/uL
same,RBC,[4],614.2 x10_4/ul
same,WBC,[4],85.8 x10_2/uL
same,KIDNEY_L,[4],0.9 g
same,KIDNEY_R,[4],0.9 g
same,KIDNEY_TOTAL,[4],1.8 g
same,LIVER,[4],9.5 g
same,ALT,[4],51 IU/L
same,AST,[4],76.2 IU/L
same,CRE,[4],0.2 mg/dL
same,Ca,[4],11.2 mg/dL
same,Cl,[4],106.8 meq/L
same,DBIL,[4],0.018 mg/dL
same,GLC,[4],173.6 mg/dL
same,K,[4],4.2 meq/L
same,LDH,[4],82.4 IU/L
same,Na,[4],144.4 meq/L
same,PL,[4],150.4 mg/dL
same,RALB,[4],2.7 g/dL
same,TBIL,[4],0.022 mg/dL
same,TC,[4],81.2 mg/dL
same,TG,[4],95.8 mg/dL
same,TP,[4],5.5 g/dL
same,gamma-GTP,[4],1.2 IU/L
same,TERMINAL_BW,[5],189.3 g
same,Bas,[5],0%
same,Eos,[5],0.4%
same,Fbg,[5],277.6 mg/dL
same,Hb,[5],12.7 g/dL
same,Ht,[5],39.2%
same,Lym,[5],69.6%
same,MCHC,[5],32.5%
same,MCV,[5],65.1 fL
same,Mono,[5],4.4%
same,PT,[5],14.6 s
same,Plat,[5],121.1 x10_4/uL
same,RBC,[5],601.6 x10_4/ul
same,WBC,[5],95.2 x10_2/uL
same,KIDNEY_L,[5],0.8 g
same,KIDNEY_R,[5],0.9 g
same,KIDNEY_TOTAL,[5],1.7 g
same,LIVER,[5],8.3 g
same,ALT,[5],52.6 IU/L
same,AST,[5],92 IU/L
same,CRE,[5],0.2 mg/dL
same,Ca,[5],10.7 mg/dL
same,Cl,[5],103.8 meq/L
same,DBIL,[5],0.008 mg/dL
same,GLC,[5],193 mg/dL
same,K,[5],4.4 meq/L
same,LDH,[5],64.4 IU/L
same,Na,[5],140.8 meq/L
same,PL,[5],137.2 mg/dL
same,RALB,[5],2.5 g/dL
same,TBIL,[5],0.028 mg/dL
same,TC,[5],76.8 mg/dL
same,TG,[5],48.4 mg/dL
same,TP,[5],5.2 g/dL
same,gamma-GTP,[5],1 IU/L
same,TERMINAL_BW,[6],185.7 g
same,APTT,[6],17.5 s
same,Bas,[6],0.4%
same,Eos,[6],0.8%
same,Fbg,[6],311 mg/dL
same,Hb,[6],13.3 g/dL
same,Ht,[6],41.5%
same,Lym,[6],77.6%
same,MCHC,[6],32.1%
same,MCV,[6],66 fL
same,Mono,[6],3.2%
same,PT,[6],14.7 s
same,Plat,[6],126.6 x10_4/uL
same,RBC,[6],629 x10_4/ul
same,WBC,[6],95.6 x10_2/uL
same,KIDNEY_L,[6],0.8 g
same,KIDNEY_R,[6],0.8 g
same,KIDNEY_TOTAL,[6],1.7 g
same,LIVER,[6],7.8 g
same,ALT,[6],45 IU/L
same,AST,[6],74.6 IU/L
same,CRE,[6],0.2 mg/dL
same,Ca,[6],10.7 mg/dL
same,DBIL,[6],0.008 mg/dL
same,GLC,[6],176 mg/dL
same,K,[6],4 meq/L
same,LDH,[6],59.2 IU/L
same,Na,[6],143 meq/L
same,PL,[6],158.8 mg/dL
same,RALB,[6],2.5 g/dL
same,TBIL,[6],0.032 mg/dL
same,TC,[6],91.8 mg/dL
same,TG,[6],40.6 mg/dL
same,TP,[6],5.2 g/dL
same,gamma-GTP,[6],1 IU/L
same,TERMINAL_BW,[7],185.3 g
same,Bas,[7],0%
same,Eos,[7],0.8%
same,Fbg,[7],316.2 mg/dL
same,Hb,[7],12.6 g/dL
same,Ht,[7],38.6%
same,Lym,[7],74.8%
same,MCHC,[7],32.6%
same,MCV,[7],62.9 fL
same,Mono,[7],2.8%
same,PT,[7],14.7 s
same,Plat,[7],132.9 x10_4/uL
same,RBC,[7],613 x10_4/ul
same,WBC,[7],97 x10_2/uL
same,KIDNEY_L,[7],0.8 g
same,KIDNEY_R,[7],0.8 g
same,KIDNEY_TOTAL,[7],1.6 g
same,LIVER,[7],7.2 g
same,ALP,[7],1763.8 IU/L
same,ALT,[7],48.4 IU/L
same,AST,[7],81.2 IU/L
same,CRE,[7],0.2 mg/dL
same,Ca,[7],10.4 mg/dL
same,Cl,[7],105.8 meq/L
same,DBIL,[7],0.01 mg/dL
same,GLC,[7],170.2 mg/dL
same,K,[7],4.2 meq/L
same,LDH,[7],53.6 IU/L
same,Na,[7],142.4 meq/L
same,PL,[7],144.8 mg/dL
same,RALB,[7],2.6 g/dL
same,TBIL,[7],0.026 mg/dL
same,TC,[7],78.4 mg/dL
same,TG,[7],59 mg/dL
same,TP,[7],5.3 g/dL
same,gamma-GTP,[7],1.2 IU/L
same,TERMINAL_BW,[8],195.5 g
same,Bas,[8],0%
same,Eos,[8],0.8%
same,Fbg,[8],299 mg/dL
same,Ht,[8],39.9%
same,Lym,[8],76.6%
same,MCHC,[8],33%
same,MCV,[8],64.4 fL
same,Mono,[8],4.4%
same,PT,[8],15 s
same,Plat,[8],125.7 x10_4/uL
same,RBC,[8],621.2 x10_4/ul
same,WBC,[8],83.8 x10_2/uL
same,KIDNEY_L,[8],0.9 g
same,KIDNEY_R,[8],0.9 g
same,KIDNEY_TOTAL,[8],1.7 g
same,LIVER,[8],9.3 g
same,ALP,[8],2052.4 IU/L
same,ALT,[8],41.2 IU/L
same,AST,[8],66.6 IU/L
same,CRE,[8],0.2 mg/dL
same,Ca,[8],11.1 mg/dL
same,Cl,[8],107.6 meq/L
same,DBIL,[8],0.02 mg/dL
same,GLC,[8],168.6 mg/dL
same,K,[8],4.3 meq/L
same,LDH,[8],87.2 IU/L
same,Na,[8],144 meq/L
same,PL,[8],144.8 mg/dL
same,RALB,[8],2.7 g/dL
same,TBIL,[8],0.018 mg/dL
same,TC,[8],77.4 mg/dL
same,TG,[8],108.6 mg/dL
same,TP,[8],5.6 g/dL
same,gamma-GTP,[8],1 IU/L
